Assay [1] deals with T1, USP1-UAF1 complex (Homo sapiens, UniProt O94782). Particulars: 1.2 µM.
Method: (§1) Biochemical Assay: The compounds were evaluated for their potential to inhibit USP1-UAF1 complex (Boston Biochem, Catalog: E568-050) using a fluorescence-based assay. The final concentrations of USP1-UAF1 complex protein and substrate Ubiquitin-Rhodamine-110 (R&D systems, Catalog U-555-050) used in the assay were 0.45 and 150 nM respectively. 50 mM HEPES pH. 7.5, 100 mM NaCl, 0.5 mM EDTA, 1 mM TCEP, 10% BSA, 0.01% Tween 20 buffer was used in the assay. The total assay volume was 20 μL. […] The final DMSO concentration in the assay was 1%. The compounds were pre-incubated with USP1-UAF1 complex at 25° C. for 15 min. After preincubation, required concentration of substrate was added and incubated at 25° C. for 60 min. Fluorescence at Excitation: 485 nm, Emission: 535 nm was measured in Victor-5 from Perkin Elmer.
(§2) To determine IC50 values, dose response curves were generated by plotting percentage inhibition as a function of inhibitor concentration and the data was fitted to sigmoidal non-linear regression equation (variable slope) using Graph Pad prism software V8.
(§3) The compounds were screened by the above-mentioned assay procedure.
Assay [2] addresses T1, USP1-UAF1 complex. Put plainly: biochemical.
Method: as §1, §2, §3

A word on the inhibition: it is the relative decrease from the control value, in per cent. Low readings indicate a weak effect, high ones a strong effect. A word on the IC50: it is the point on the concentration scale where inhibition reaches its midpoint. The low end stands for greater potency, the high end for weaker potency.

Each structure is given as a SMILES string.

T1 sequence (O94782 whole entry): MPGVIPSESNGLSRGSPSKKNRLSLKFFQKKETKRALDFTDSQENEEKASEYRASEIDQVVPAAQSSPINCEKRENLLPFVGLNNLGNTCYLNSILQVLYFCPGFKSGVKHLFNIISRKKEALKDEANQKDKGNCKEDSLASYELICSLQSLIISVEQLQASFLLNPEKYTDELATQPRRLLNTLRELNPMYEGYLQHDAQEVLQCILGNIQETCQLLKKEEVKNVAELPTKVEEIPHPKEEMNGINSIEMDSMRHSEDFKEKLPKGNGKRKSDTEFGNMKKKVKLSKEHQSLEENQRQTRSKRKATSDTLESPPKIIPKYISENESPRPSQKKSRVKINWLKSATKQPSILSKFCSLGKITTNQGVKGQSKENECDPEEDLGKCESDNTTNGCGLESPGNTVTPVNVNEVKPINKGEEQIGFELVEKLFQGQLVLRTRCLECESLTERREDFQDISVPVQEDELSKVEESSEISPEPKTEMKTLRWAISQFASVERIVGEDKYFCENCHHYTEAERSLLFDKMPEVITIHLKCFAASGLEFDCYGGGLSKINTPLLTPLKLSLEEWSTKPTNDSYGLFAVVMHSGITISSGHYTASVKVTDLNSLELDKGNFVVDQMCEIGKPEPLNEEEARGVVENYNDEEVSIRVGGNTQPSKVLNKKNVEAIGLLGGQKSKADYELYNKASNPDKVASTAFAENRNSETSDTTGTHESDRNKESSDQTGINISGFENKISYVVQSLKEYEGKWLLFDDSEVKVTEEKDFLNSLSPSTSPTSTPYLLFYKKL
T1 sequence (Q8TAF3 whole entry partner): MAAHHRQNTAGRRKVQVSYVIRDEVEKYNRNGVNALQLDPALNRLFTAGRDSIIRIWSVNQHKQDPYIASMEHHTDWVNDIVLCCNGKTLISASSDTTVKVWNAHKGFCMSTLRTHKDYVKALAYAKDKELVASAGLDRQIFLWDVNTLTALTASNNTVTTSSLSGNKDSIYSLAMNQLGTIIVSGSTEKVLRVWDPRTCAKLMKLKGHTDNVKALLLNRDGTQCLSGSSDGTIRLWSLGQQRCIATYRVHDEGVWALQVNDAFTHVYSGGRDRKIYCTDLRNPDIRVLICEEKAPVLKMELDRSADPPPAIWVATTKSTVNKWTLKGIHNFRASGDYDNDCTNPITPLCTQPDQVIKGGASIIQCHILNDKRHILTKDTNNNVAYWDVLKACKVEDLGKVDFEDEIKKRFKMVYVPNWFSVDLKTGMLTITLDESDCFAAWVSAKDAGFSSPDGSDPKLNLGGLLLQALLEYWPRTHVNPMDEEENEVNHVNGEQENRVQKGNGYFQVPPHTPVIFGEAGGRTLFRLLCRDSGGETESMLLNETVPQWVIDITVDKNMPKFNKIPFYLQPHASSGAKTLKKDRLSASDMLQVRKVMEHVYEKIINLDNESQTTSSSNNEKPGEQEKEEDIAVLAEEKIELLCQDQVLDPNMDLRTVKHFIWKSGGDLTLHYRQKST

For `COc1ncnc(C2CC2)c1-c1nn(C(C)C)c2c1CN(c1ccc(-c3nc(C(F)(F)F)cn3C)nc1)CC2` [Compound 28, 3-(4-cyclopropyl-6-methoxypyrimidin-5-yl)-1-isopropyl-5-(6-(1-methyl-4-(trifluoromethyl)-1H-imidazol-2-yl)pyridin-3-yl)-4,5,6,7-tetrahydro-1H-pyrazolo[4,3-c]pyridine], the inhibition against USP1-UAF1 complex [1] stood at 90%. This compound also had a 50% inhibitory concentration (IC50) at USP1-UAF1 complex [2] greater than 100 nM. The compound `COc1cc(N2CCc3c(c(-c4c(OC)ncnc4C4CC4)nn3C)C2)ccc1-c1nc(C(F)(F)F)cn1C` [Compound 46, 3-(4-cyclopropyl-6-methoxypyrimidin-5-yl)-5-(3-methoxy-4-(1-methyl-4-(trifluoromethyl)-1H-imidazol-2-yl)phenyl)-1-methyl-4,5,6,7-tetrahydro-1H-pyrazolo[4,3-c]pyridine] returned an inhibition against USP1-UAF1 complex [1] of 96%. For the same compound, at USP1-UAF1 complex [2], the IC50 was in the range of 50 to 100 nM. The matching figures for `COc1ncnc(C2CC2)c1-c1n[nH]c2c1CN(c1ccc(-c3nc(C(F)(F)F)cn3C)cn1)CC2` [Compound 54, 3-(4-cyclopropyl-6-methoxypyrimidin-5-yl)-5-(5-(1-methyl-4-(trifluoromethyl)-1H-imidazol-2-yl)pyridin-2-yl)-4,5,6,7-tetrahydro-1H-pyrazolo[4,3-c]pyridine]: 91% and greater than 100 nM. With `COc1ncnc(C2CC2)c1-c1nn(C)c2c1CN(c1ccc(-n3nc(C(F)(F)F)cc3C)cc1)CC2` [Compound 17, 3-(4-cyclopropyl-6-methoxypyrimidin-5-yl)-1-methyl-5-(4-(5-methyl-3-(trifluoromethyl)-1H-pyrazol-1-yl)phenyl)-4,5,6,7-tetrahydro-1H-pyrazolo[4,3-c]pyridine], the inhibition against USP1-UAF1 complex [1] is 100%. The compound further had an IC50 against USP1-UAF1 complex [2] of less than 50 nM. On the same counts, the results for `CCn1nc(-c2c(OC)ncnc2C2CC2)c2c1CCN(c1ccc(-c3nc(C(F)(F)F)cn3C)cn1)C2` [Compound 26, 3-(4-cyclopropyl-6-methoxypyrimidin-5-yl)-1-ethyl-5-(5-(1-methyl-4-(trifluoromethyl)-1H-imidazol-2-yl)pyridin-2-yl)-4,5,6,7-tetrahydro-1H-pyrazolo[4,3-c]pyridine] are 90% and greater than 100 nM. The matching figures for `COc1ncnc(C2CC2)c1-c1nn(C)c2c1CN(c1ccc(-c3nc(C(F)(F)F)cn3C)cc1)CC2(C)C` [Compound 41, 3-(4-cyclopropyl-6-methoxypyrimidin-5-yl)-1,7,7-trimethyl-5-(4-(1-methyl-4-(trifluoromethyl)-1H-imidazol-2-yl)phenyl)-4,5,6,7-tetrahydro-1H-pyrazolo[4,3-c]pyridine]: 100% and less than 50 nM. For the compound `CCn1cc(C(F)(F)F)nc1-c1ccc(N2CCc3c(c(-c4c(OC)ncnc4C4CC4)nn3C)C2)nc1` [Compound 14, 3-(4-cyclopropyl-6-methoxypyrimidin-5-yl)-5-(5-(1-ethyl-4-(trifluoromethyl)-1H-imidazol-2-yl)pyridin-2-yl)-1-methyl-4,5,6,7-tetrahydro-1H-pyrazolo[4,3-c]pyridine], on USP1-UAF1 complex [1], the inhibition is 99%. The concentration for half-maximal inhibition (IC50) against USP1-UAF1 complex [2] lay in the range of 50 to 100 nM. The matching figures for `COc1ncnc(C2CC2)c1-c1nn(C)c2c1CN(c1ccc(-c3nc(C(F)(F)F)cn3C(C)C)cc1)CC2` [Compound 6, 3-(4-cyclopropyl-6-methoxypyrimidin-5-yl)-5-(4-(1-isopropyl-4-(trifluoromethyl)-1H-imidazol-2-yl)phenyl)-1-methyl-4,5,6,7-tetrahydro-1H-pyrazolo[4,3-c]pyridine]: 100% and less than 50 nM.

On USP1-UAF1 complex [1], `COc1ncnc(C2CC2)c1-c1nn(C)c2c1CN(c1ccc(-c3nc(C(F)(F)F)cn3C3CCC3)cc1)CC2` [Compound 8, 5-(4-(1-cyclobutyl-4-(trifluoromethyl)-1H-imidazol-2-yl)phenyl)-3-(4-cyclopropyl-6-methoxypyrimidin-5-yl)-1-methyl-4,5,6,7-tetrahydro-1H-pyrazolo[4,3-c]pyridine] yielded an inhibition of 100%. This compound had an IC50 against USP1-UAF1 complex [2] of less than 50 nM.

For the compound `COc1ncnc(C2CC2)c1-c1nn(C)c2c1CN(c1ccc(-c3nc(C(F)(F)F)cn3C)c(N(C)C)c1)CC2` [Compound 48, 5-(3-(4-cyclopropyl-6-methoxypyrimidin-5-yl)-1-methyl-1,4,6,7-tetrahydro-5H-pyrazolo[4,3-c]pyridin-5-yl)-N,N-dimethyl-2-(1-methyl-4-(trifluoromethyl)-1H-imidazol-2-yl)aniline], the inhibition against USP1-UAF1 complex [1] worked out at 97%. At USP1-UAF1 complex [2], this compound gave a concentration for half-maximal inhibition (IC50) of 50 to 100 nM. The matching figures for `COc1ncnc(C2CC2)c1-c1nn(C)c2c1CN(c1ccc(-c3nc(C(F)(F)F)cn3C)cc1)CC2C` (stereo not drawn) [Compound 38, 3-(4-cyclopropyl-6-methoxypyrimidin-5-yl)-1,7-dimethyl-5-(4-(1-methyl-4-(trifluoromethyl)-1H-imidazol-2-yl)phenyl)-4,5,6,7-tetrahydro-1H-pyrazolo[4,3-c]pyridine]: 99% and less than 50 nM.

Compound `COc1ncnc(C2CC2)c1-c1nn(C)c2c1CN(c1cnc(-n3nc(C(F)(F)F)cc3C)nc1)CC2` [Compound 51, 3-(4-cyclopropyl-6-methoxypyrimidin-5-yl)-1-methyl-5-(2-(5-methyl-3-(trifluoromethyl)-1H-pyrazol-1-yl)pyrimidin-5-yl)-4,5,6,7-tetrahydro-1H-pyrazolo[4,3-c]pyridine] showed an inhibition against USP1-UAF1 complex [1] of 95%. Besides, the IC50 at USP1-UAF1 complex [2] was in the range of 50 to 100 nM.

For `COc1ncnc(C2CC2)c1-c1nn(C)c2c1CN(c1ccc(-n3nc(C(F)(F)F)cc3OC)cc1)CC2` [Compound 19, 3-(4-cyclopropyl-6-methoxypyrimidin-5-yl)-5-(4-(5-methoxy-3-(trifluoromethyl)-1H-pyrazol-1-yl)phenyl)-1-methyl-4,5,6,7-tetrahydro-1H-pyrazolo[4,3-c]pyridine], the inhibition against USP1-UAF1 complex [1] was found to be 99%. The compound also gave an IC50 at USP1-UAF1 complex [2] of less than 50 nM. `CC(C)c1ncccc1-c1nn(C)c2c1CN(c1ccc(-c3nc(C(F)(F)F)cn3C)nc1)CC2` [Compound 4, 3-(2-isopropylpyridin-3-yl)-1-methyl-5-(6-(1-methyl-4-(trifluoromethyl)-1H-imidazol-2-yl)pyridin-3-yl)-4,5,6,7-tetrahydro-1H-pyrazolo[4,3-c]pyridine] yielded an inhibition against USP1-UAF1 complex [1] of 81%. In addition, the IC50 against USP1-UAF1 complex [2] was greater than 100 nM. The matching figures for `CCn1cc(C(F)(F)F)nc1-c1ccc(N2CCc3c(c(-c4c(OC)ncnc4C4CC4)nn3C)C2)cc1` [Compound 5, 3-(4-cyclopropyl-6-methoxypyrimidin-5-yl)-5-(4-(1-ethyl-4-(trifluoromethyl)-1H-imidazol-2-yl)phenyl)-1-methyl-4,5,6,7-tetrahydro-1H-pyrazolo[4,3-c]pyridine]: 100% and less than 50 nM.

In turn, `COc1ncnc(C2CC2)c1-c1nn(C2CCC2)c2c1CN(c1ccc(-c3nc(C(F)(F)F)cn3C)cn1)CC2` [Compound 35, 1-cyclobutyl-3-(4-cyclopropyl-6-methoxypyrimidin-5-yl)-5-(5-(1-methyl-4-(trifluoromethyl)-1H-imidazol-2-yl)pyridin-2-yl)-4,5,6,7-tetrahydro-1H-pyrazolo[4,3-c]pyridine] gave an inhibition against USP1-UAF1 complex [1] of 76%. The IC50 on USP1-UAF1 complex [2] was greater than 100 nM. On the same counts, the results for `CCn1nc(-c2c(OC)ncnc2C2CC2)c2c1CCN(c1ccc(-c3nc(C(F)(F)F)cn3C)cc1)C2` [Compound 24, 3-(4-cyclopropyl-6-methoxypyrimidin-5-yl)-1-ethyl-5-(4-(1-methyl-4-(trifluoromethyl)-1H-imidazol-2-yl)phenyl)-4,5,6,7-tetrahydro-1H-pyrazolo[4,3-c]pyridine] are 98% and less than 50 nM. On the same counts, the results for `COc1ncnc(C2CC2)c1-c1nn(C)c2c1CN(c1cnc(-c3nc(C(F)(F)F)cn3C)cn1)CC2` [Compound 52, 3-(4-cyclopropyl-6-methoxypyrimidin-5-yl)-1-methyl-5-(5-(1-methyl-4-(trifluoromethyl)-1H-imidazol-2-yl)pyrazin-2-yl)-4,5,6,7-tetrahydro-1H-pyrazolo[4,3-c]pyridine] are 96% and 50 to 100 nM. On the same counts, the results for `COc1ncnc(C2CC2)c1-c1nn(C)c2c1CN(c1ccc(-c3nc(C(F)(F)F)cn3C)nc1)CC2` [Compound 12, 3-(4-cyclopropyl-6-methoxypyrimidin-5-yl)-1-methyl-5-(6-(1-methyl-4-(trifluoromethyl)-1H-imidazol-2-yl)pyridin-3-yl)-4,5,6,7-tetrahydro-1H-pyrazolo[4,3-c]pyridine] are 98% and less than 50 nM.

Compound `COc1ncnc(C2CC2)c1-c1nn(C(C)C)c2c1CN(c1ccc(-c3nc(C(F)(F)F)cn3C)cc1)CC2` [Compound 27, 3-(4-cyclopropyl-6-methoxypyrimidin-5-yl)-1-isopropyl-5-(4-(1-methyl-4-(trifluoromethyl)-1H-imidazol-2-yl)phenyl)-4,5,6,7-tetrahydro-1H-pyrazolo[4,3-c]pyridine] showed an inhibition on USP1-UAF1 complex [1] of 98%. Moreover, the IC50 at USP1-UAF1 complex [2] was less than 50 nM.

Turning to `CC(C)c1ncccc1-c1nn(C)c2c1CN(c1ccc(-c3nc(C(F)(F)F)cn3C)cc1)CC2` [Compound 3, 3-(2-isopropylpyridin-3-yl)-1-methyl-5-(4-(1-methyl-4-(trifluoromethyl)-1H-imidazol-2-yl)phenyl)-4,5,6,7-tetrahydro-1H-pyrazolo[4,3-c]pyridine], on USP1-UAF1 complex [1], the inhibition was determined as 99%. In addition, the concentration for half-maximal inhibition (IC50) at USP1-UAF1 complex [2] is less than 50 nM. On the same counts, the results for `COc1ncnc(C2CC2)c1-c1nn(C2CC2)c2c1CN(c1ccc(-c3nc(C(F)(F)F)cn3C)cn1)CC2` [Compound 32, 1-cyclopropyl-3-(4-cyclopropyl-6-methoxypyrimidin-5-yl)-5-(5-(1-methyl-4-(trifluoromethyl)-1H-imidazol-2-yl)pyridin-2-yl)-4,5,6,7-tetrahydro-1H-pyrazolo[4,3-c]pyridine] are 89% and greater than 100 nM.

For the compound `COc1cccc(C2CC2)c1-c1nn(C)c2c1CN(c1ccc(-c3nc(C(F)(F)F)cn3C)cc1)CC2` [Compound 2, 3-(2-cyclopropyl-6-methoxyphenyl)-1-methyl-5-(4-(1-methyl-4-(trifluoromethyl)-1H-imidazol-2-yl)phenyl)-4,5,6,7-tetrahydro-1H-pyrazolo[4,3-c]pyridine], the concentration for half-maximal inhibition (IC50) at USP1-UAF1 complex [2] was less than 50 nM.

Values taken from patent publication US20260152498A1, “4,5,6,7-TETRAHYDRO-1H-PYRAZOLO[4,3-c]PYRIDINE COMPOUNDS AND DERIVATIVES AS USP1 INHIBITORS” (EXELIXIS, INC., priority 2022, published 2026).
